{
  "source": "patent EP0415304A2",
  "about": "“Dipyrido[3,2-b:2',3'-e][1,4]oxazepin (and thiazepin)-6(5H)-ones and their use in the prevention or treatment of aids” (BOEHRINGER INGELHEIM PHARMACEUTICALS INC., priority 1989, dated 1991)",
  "biological_target": "T1, HIV-1 RT (Human immunodeficiency virus type 1 group M subtype B, UniProt P03367)",
  "T1 construct": "Reverse transcriptase enzyme from the LAV strain of Human Immunodeficiency Virus (HIV-1) (1) was isolated from the bacterial strain JM109; made in house; host or cells: E. coli JM109, clone pBRTprtl+ in vector pIB121 under the lac promoter",
  "test": "Reverse Transcriptase (RT) Assay: inhibition of RNA-dependent DNA polymerase activity",
  "format": "biochemical",
  "conditions": "tested at a concentration of 10µg/ml; read-out: inhibit the enzyme (percent inhibition of RNA-dependent DNA polymerase activity of HIV-1 RT)",
  "text": "Utilizing the Reverse Transcriptase (RT) Assay described below, compounds can be tested for their ability to inhibit the RNA-dependent DNA polymerase activity of HIV-1 RT. The compound described in Example 1, which appears below, was so tested.\nAmong the enzymes for which Human Immunodeficiency Virus (HIV-1) encodes is a reverse transcriptase (1), so-named because it transcribes a DNA copy from an RNA template. This activity can be quantitatively measured in a cell-free enzyme assay which has been previously described (2), and is based upon the observation that reverse transcriptase is able to use a synthetic template [poly r(C) primed with oligo d(G)] to transcribe a radio-labelled, acid-precipitable DNA strand utilizing ³H-dGTP as a substrate.\nReverse transcriptase enzyme from the LAV strain of Human Immunodeficiency Virus (HIV-1) (1) was isolated from the bacterial strain JM109 (3) expressing the DNA clone pBRTprtl+ (2) which is under the control of the lac promotor in the expression vector pIB121 (4). […]\nThe 2X concentrated stock reaction mixture is aliquoted and stored at -20°C. […] Each vial receives 2 ml of scintillation cocktail and is counted in a Beckman beta counter. […]",
  "data": [
    {"molecule": "CCCN1C(=O)c2cccnc2Oc2ncccc21", "note": "[Example 1, 5,6-Dihydro-5-propyl-6H-dipyrido[3,2-b:2′,3′-e][1,4]oxazepin-6-one]", "values": [
      {"measurement": "inhibition at 10 µg/mL", "result": 30, "unit": "%"}
    ]}
  ]
}
